Organism: Rattus norvegicus
Assay: Inhibition of rat recombinant geranylgeranyltransferase type I expressed in Escherichia coli assessed as residual enzyme activity for geranylgeranylation of K-Ras4B at 50 uM incubated for 30 mins in presence of [3H]GGPP by scintillation counting assay relative to control

Row | Structure (SMILES) | Activity [%]
1 | Cc1ccc(S(=O)(=O)N2[C@@H](c3cccc(Cl)c3)C(C(=O)O)=CC[C@H]2c2ccc(F)cc2)cc1 | 66.7
2 | Cc1ccc(S(=O)(=O)N2[C@@H](c3ccc(Cl)cc3)C(C(=O)O)=CC[C@H]2c2cccs2)cc1 | 75.6
3 | COC(=O)c1ccccc1S(=O)(=O)N1[C@@H](c2cccc(Br)c2)C(C(=O)O)=CC[C@H]1c1ccc(C)cc1 | 64.9
4 | O=C(O)C1=CC[C@@H](c2ccc(Cl)cc2)N(S(=O)(=O)c2ccc(Cl)cc2)[C@H]1c1ccc(F)cc1 | 43.5
5 | CCOc1ccc([C@@H]2CC=C(C(=O)O)[C@H](c3cccc(Cl)c3)N2S(=O)(=O)c2ccc(C)cc2)cc1 | 78.9
6 | Cc1ccc([C@@H]2CC=C(C(=O)O)[C@H](c3ccc(F)cc3)N2S(=O)(=O)c2ccc(Cl)cc2)cc1 | 60
7 | Cc1ccc(S(=O)(=O)N2[C@@H](c3cccc(C)c3)C(C(=O)O)=CC[C@H]2c2ccc3c(c2)OCO3)cc1 | 70.6
8 | COc1ccc([C@@H]2CC=C(C(=O)O)[C@H](c3ccc(C)cc3)N2S(=O)(=O)c2ccc(C)cc2)cc1 | 73.8
9 | Cc1ccc([C@@H]2CC=C(C(=O)O)[C@H](c3cccc(C)c3)N2S(=O)(=O)c2ccccc2C)cc1 | 53.4
10 | Cc1ccc([C@H]2C(C(=O)O)=CC[C@@H](c3ccc(Cl)cc3)N2S(=O)(=O)c2ccc(Cl)cc2)cc1 | 53.9
11 | Cc1ccc([C@@H]2CC=C(C(=O)O)[C@H](c3cccc(Br)c3)N2S(=O)(=O)c2ccccc2)cc1 | 67.2
12 | Cc1ccccc1S(=O)(=O)N1C[C@@H](C(=O)O)[C@H](SC2CCCC2)C[C@H]1c1ccc(Cl)cc1 | 92.1
13 | Cc1ccc([C@@H]2C[C@@H](SC3CCCC3)[C@H](C(=O)O)CN2S(C)(=O)=O)cc1 | 110
14 | Cc1ccc(S(=O)(=O)N2[C@@H](c3ccc(Br)cc3)C(C(=O)O)=CC[C@H]2c2cccc(Cl)c2)cc1 | 69.2
15 | COc1ccc([C@@H]2CC=C(C(=O)O)[C@H](c3ccc(Br)cc3)N2S(=O)(=O)c2ccccc2)cc1 | 82.3
16 | Cc1ccc(S(=O)(=O)N2[C@@H](c3ccc(Cl)cc3)C(C(=O)O)=CC[C@H]2c2ccc(C#N)cc2)cc1 | 73.1
17 | COc1ccc([C@@H]2CC=C(C(=O)O)[C@H](c3cccc(C)c3)N2S(=O)(=O)c2ccc(C)cc2)cc1 | 67.3
18 | COc1ccc([C@@H]2C[C@@H](SC3CCCC3)[C@H](C(=O)O)CN2S(=O)(=O)c2ccc(Cl)cc2)cc1 | 83.1
19 | COc1ccc([C@@H]2CC=C(C(=O)O)[C@H](c3ccc(Cl)cc3)N2S(=O)(=O)c2ccccc2)cc1 | 86.8
20 | CC(=O)C1=CC[C@@H](c2ccc(C(C)C)cc2)N(S(=O)(=O)c2ccc(C)cc2)C1 | 105

Row | Structure (SMILES) | Activity [%]
21 | COC(=O)c1ccccc1S(=O)(=O)N1[C@@H](c2ccc(C)cc2)C(C(=O)O)=CC[C@H]1c1ccc(C)cc1 | 89.4
22 | Cc1ccc(S(=O)(=O)N2[C@@H](c3cccc(F)c3)C(C(=O)O)=CC[C@H]2c2cccc(F)c2)cc1 | 69.9
23 | Cc1ccc([C@@H]2CC=C(C(=O)O)[C@H](c3ccc(F)cc3)N2S(=O)(=O)c2ccccc2)cc1 | 68.1
24 | COc1cc([C@@H]2CC=C(C(C)=O)CN2S(=O)(=O)c2ccc(C)cc2)cc(OC)c1OC | 92.3
25 | COc1ccc([C@@H]2CC=C(C(=O)O)[C@H](c3ccc(Cl)cc3)N2S(=O)(=O)c2ccc(Cl)cc2)cc1 | 72.6
26 | CS(=O)(=O)N1[C@@H](c2cccc(F)c2)C(C(=O)O)=CC[C@H]1c1ccc(Cl)cc1 | 69.9
27 | Cc1ccc(S(=O)(=O)N2[C@@H](c3cccc(F)c3)C(C(=O)O)=CC[C@H]2c2ccc(C(C)C)cc2)cc1 | 72.8
28 | CCOc1ccc([C@@H]2CC=C(C(=O)O)[C@H](c3ccc(C)cc3)N2S(=O)(=O)c2ccc(C)cc2)cc1 | 63.2
29 | Cc1ccc(S(=O)(=O)N2[C@@H](c3ccc(Cl)cc3)C(C(=O)O)=CC[C@H]2c2ccc(Cl)cc2)cc1 | 52.8
30 | Cc1ccc(S(=O)(=O)N2[C@@H](c3ccc(Br)cc3)C(C(=O)O)=CC[C@H]2c2cccc(Br)c2)cc1 | 57.9
31 | CCCCCS[C@@H]1C[C@@H](c2ccc(C)cc2)N(S(C)(=O)=O)C[C@H]1C(=O)O | 107
32 | COc1ccc([C@@H]2CC=C(C(=O)O)[C@H](c3cccc(F)c3)N2S(=O)(=O)c2ccccc2C)cc1 | 86.6
33 | Cc1ccc([C@@H]2CC=C(C(=O)O)[C@H](c3ccc(F)cc3)N2S(=O)(=O)c2ccccc2C)cc1 | 50.9
34 | Cc1ccc(S(=O)(=O)N2[C@@H](c3ccc(Br)cc3)C(C(=O)O)=CC[C@H]2c2ccccc2F)cc1 | 72.8
35 | Cc1ccc(S(=O)(=O)N2[C@@H](c3cccc(Cl)c3)C(C(=O)O)=CC[C@H]2c2cccc(F)c2)cc1 | 62.3
36 | Cc1ccc(S(=O)(=O)N2[C@@H](c3ccc(Br)cc3)C(C(=O)O)=CC[C@H]2c2cccs2)cc1 | 71.2
37 | Cc1ccc([C@@H]2CC=C(C(=O)O)[C@H](c3cccc(Br)c3)N2S(=O)(=O)c2ccccc2C)cc1 | 50
38 | Cc1ccc([C@@H]2CC=C(C(=O)O)[C@H](c3ccc(Cl)cc3)N2S(=O)(=O)c2ccc(C)cc2)cc1 | 67.4
39 | O=C(O)C1=CC[C@@H](c2ccc(Cl)cc2)N(S(=O)(=O)c2ccc(Cl)cc2)[C@H]1c1cccc(F)c1 | 44.8

Continued, values first:

Row | Activity [%] | Structure (SMILES)
40 | 82.7 | COc1ccc(S[C@@H]2C[C@@H](c3ccc(C)cc3)N(S(=O)(=O)c3ccc(Cl)cc3)C[C@H]2C(=O)O)cc1
41 | 87.2 | COc1ccc([C@@H]2C[C@@H](SCc3ccc(C(C)(C)C)cc3)[C@H](C(=O)O)CN2S(=O)(=O)c2ccccc2C)cc1
42 | 70.9 | CCCCCCS[C@@H]1C[C@@H](c2ccc(C)cc2)N(S(=O)(=O)c2ccc(C)cc2)C[C@H]1C(=O)O
43 | 93.4 | CCCCS[C@@H]1C[C@@H](c2ccccc2)N(S(=O)(=O)c2ccc(C)cc2)C[C@H]1C(=O)O
44 | 49.3 | Cc1ccc(S(=O)(=O)N2C[C@@H](C(=O)O)[C@H](Sc3ccccc3)C[C@H]2c2ccccc2)cc1
45 | 70 | CCCCCCS[C@@H]1C[C@@H](c2ccc(CC)cc2)N(S(=O)(=O)c2ccc(C)cc2)C[C@H]1C(=O)O
46 | 46 | CCOc1ccc([C@@H]2C[C@@H](SCc3ccc(C(C)(C)C)cc3)[C@H](C(=O)O)CN2S(=O)(=O)c2ccc(C)cc2)cc1
47 | 87.7 | Cc1ccc(S(=O)(=O)N2[C@@H](c3ccc(C(C)(C)C)cc3)C(C(=O)O)=CC[C@H]2c2ccc(C#N)cc2)cc1
48 | 79.7 | CCc1ccc([C@@H]2CC=C(C(=O)O)[C@H](c3ccc(C(C)(C)C)cc3)N2S(=O)(=O)c2ccc(C)cc2)cc1
49 | 60.3 | COc1cccc([C@@H]2C[C@@H](Sc3ccc(Cl)cc3)[C@H](C(=O)O)CN2S(=O)(=O)c2ccc(C)cc2)c1
50 | 72.9 | CCS[C@@H]1C[C@@H](c2ccc(OC)cc2)N(S(=O)(=O)c2ccc(Cl)cc2)C[C@H]1C(=O)O
51 | 80.9 | Cc1ccc([C@@H]2CC=C(C(=O)O)[C@H](c3ccc(C(C)(C)C)cc3)N2S(=O)(=O)c2ccccc2C)cc1
52 | 43.5 | COc1cc([C@@H]2C[C@@H](SCCc3ccccc3)[C@H](C(=O)O)CN2S(=O)(=O)c2ccc(C)cc2)cc(OC)c1OC
53 | 78.9 | COc1ccc([C@@H]2C[C@@H](SCc3ccc(C(C)(C)C)cc3)[C@H](C(=O)O)CN2S(=O)(=O)c2ccc(C)cc2)cc1OC
54 | 81.6 | Cc1ccc([C@@H]2CC=C(C(=O)O)[C@H](c3ccc(C(C)(C)C)cc3)N2S(=O)(=O)c2ccccc2)cc1
55 | 55.9 | Cc1ccc(S(=O)(=O)N2C[C@@H](C(=O)O)[C@H](SCc3ccc(C(C)(C)C)cc3)C[C@H]2c2ccccc2)cc1
56 | 81.4 | COc1ccc([C@@H]2C[C@@H](SCCC(C)C)[C@H](C(=O)O)CN2S(=O)(=O)c2ccc(Cl)cc2)cc1
57 | 73.1 | Cc1ccc([C@@H]2C[C@@H](SCC(C)C)[C@H](C(=O)O)CN2S(C)(=O)=O)cc1
58 | 97.3 | Cc1ccccc1S(=O)(=O)N1[C@@H](c2ccc(C(C)(C)C)cc2)C(C(=O)O)=CC[C@H]1c1ccc(Cl)cc1

Row | Activity [%] | Structure (SMILES)
59 | 73.3 | CC(C)(C)c1ccc([C@H]2C(C(=O)O)=CC[C@@H](c3ccccc3)N2S(C)(=O)=O)cc1
60 | 73.9 | CCCS[C@@H]1C[C@@H](c2cccc(OC)c2)N(S(=O)(=O)c2ccc(C)cc2)C[C@H]1C(=O)O
61 | 74.6 | Cc1ccc(S(=O)(=O)N2[C@@H](c3ccc(Br)cc3)C(C(=O)O)=CC[C@H]2c2ccccc2)cc1
62 | 100 | CCCS[C@@H]1C[C@@H](c2ccc(C)cc2)N(S(=O)(=O)c2ccccc2)C[C@H]1C(=O)O
63 | 83.6 | CCS[C@@H]1C[C@@H](c2ccc(C)cc2)N(S(=O)(=O)c2ccccc2C)C[C@H]1C(=O)O
64 | 91.5 | CCS[C@@H]1C[C@@H](c2ccc3c(c2)OCO3)N(S(=O)(=O)c2ccc(C)cc2)C[C@H]1C(=O)O
65 | 63.7 | COc1cc([C@@H]2C[C@@H](SCc3ccccc3)[C@H](C(=O)O)CN2S(=O)(=O)c2ccc(C)cc2)cc(OC)c1OC
66 | 75.6 | COc1ccc([C@@H]2C[C@@H](SCC(C)C)[C@H](C(=O)O)CN2S(=O)(=O)c2ccc(Cl)cc2)cc1
67 | 62 | COc1cccc([C@@H]2C[C@@H](SCCC(C)C)[C@H](C(=O)O)CN2S(=O)(=O)c2ccc(C)cc2)c1
68 | 58.3 | CCS[C@@H]1C[C@@H](c2ccc(C)cc2)N(S(=O)(=O)c2ccc(Cl)cc2)C[C@H]1C(=O)O
69 | 97 | COc1ccc(S[C@@H]2C[C@@H](c3ccc(OC)cc3)N(S(=O)(=O)c3ccc(C)cc3)C[C@H]2C(=O)O)cc1
70 | 77.2 | CCCCCS[C@@H]1C[C@@H](c2ccccc2)N(S(=O)(=O)c2ccc(C)cc2)C[C@H]1C(=O)O
71 | 101 | COc1ccc(S[C@@H]2C[C@@H](c3cccc(OC)c3)N(S(=O)(=O)c3ccc(C)cc3)C[C@H]2C(=O)O)cc1
72 | 53.3 | CCCS[C@@H]1C[C@@H](c2ccc(Cl)cc2)N(S(=O)(=O)c2ccccc2C)C[C@H]1C(=O)O
73 | 88.8 | CCCCS[C@@H]1C[C@@H](c2ccc(OC)cc2)N(S(=O)(=O)c2ccccc2C)C[C@H]1C(=O)O
74 | 75 | CCCS[C@@H]1C[C@@H](c2cc(OC)c(OC)c(OC)c2)N(S(=O)(=O)c2ccc(C)cc2)C[C@H]1C(=O)O
75 | 92 | Cc1ccc([C@@H]2C[C@@H](Sc3ccccc3)[C@H](C(=O)O)CN2S(=O)(=O)c2ccccc2)cc1
76 | 100 | COc1ccc(S[C@@H]2C[C@@H](c3ccc(C)cc3)N(S(=O)(=O)c3ccccc3)C[C@H]2C(=O)O)cc1
